This is an account of results in patent US4005217A, “Treatment of helminth infections with substituted phenyl-thiourea derivatives” (May & Baker Limited, priority 1970, dated 1977).

For assay [1], the system named is Nippostrongylus brasiliensis. Briefly: Test 2: activity against roundworms in rats, treatment 24 hours after infection, worm counts 6 days after dosing. Conditions: for inhibition in vivo at 1000 mg/kg / inhibition in vivo at 250 mg/kg: Nippostrongylus brasiliensis, 144 h. It is filed as in vivo. As to the method: Test 2 -- Rats were infected with 100 Nippostrongylus brasiliensis larvae each, by the subcutaneous route. After 24 hours the rats were randomised and allotted to groups of 5 animals each, ready for treatment. Doses of the test compound were then administered to each group by the oral, subcutaneous and intraperitoneal routes respectively, one group of 10 animals being left untreated as a control. All the rats were killed for post-mortem worm counts 6 days after dosing. The activities, expressed in terms of the percentage reductions in mean worm load of the treated groups or damage to the worms compared with the untreated control group, are given below in Table I.

Assay [2] concerns Nippostrongylus brasiliensis eggs. As to the kind of experiment: In vitro activity against roundworms (egg hatching and larvae). It is filed as cell-based. Conditions: 96 h, tested at 100, 10, 1 and 0.1 μg/ml, inhibited or delayed hatching of eggs, or killed, retarded growth or reduced activity of larvae during 4 days, read-out: M.I.C. (minimum inhibitory concentration). As to the method:
Compounds of formula I were tested at concentrations of 100 μg/ml, 10 μg/ml, 1 μg/ml and 0.1 μg/ml in small glass containers. If the compound was not soluble in water, a volatile organic medium, e.g. acetone, chloroform, ethanol or methanol was used. An amount of material appropriate for each final concentration was measured and placed in duplicate test containers and if an organic solvent was used it was allowed to evaporate completely. Nippostrongylus brasiliensis eggs were recovered by saturated saline centrifugal flotation from the faeces of rats heavily infected with third stage larvae six days previously. They were washed several times in water and suspended in water in a suitable concentration. From 25-50 eggs were placed in each container and the final volume was made up by the addition of a very dilute aqueous suspension of mouse faeces which served as the growth medium. The minimum inhibitory concentrations of each compound (M.I.C.), shown in the following Table V was the minimum concentration in μg/ml total liquid volume at which it inhibited or delayed hatching of eggs, or at which it killed, retarded growth or reduced activity of larvae during the 4 days after beginning the test.

Assay [3] deals with Nippostrongylus brasiliensis. Briefly: Test 1: activity against roundworms in rats, treatment 6 days after infection (patent infection), worm counts 48 hours after treatment. It is filed as in vivo. As to the method:
Test 1 - Rats were infected with 100 Nippostrongylus brasiliensis larvae each, by the subcutaneous route. After 6 days, when the infection was patent, the rats were randomised and alloted to groups of 10 animals each, ready for treatment. One group was used for each dose level of the test compound and, in each experiment, one group was left untreated as a control. All the rats were killed for post-mortem worm counts 48 hours after treatment. The activity, expressed in terms of the percentage reduction in mean worm load of the treated group compared with the untreated group, is shown in Table I.

The mark [4] stands for this setting: rats, Test 2, 1000 mg/kg oral, read-out: Percentage reduction in N.brasiliensis load.
The mark [5] stands for this setting: ip, rats, Test 2, 250 mg/kg intraperitoneal, read-out: Percentage reduction in N.brasiliensis load.
The mark [6] stands for this setting: sc, rats, Test 2, 250 mg/kg subcutaneous, read-out: Percentage reduction in N.brasiliensis load.
Where [7] appears, read: Nippostrongylus brasiliensis, po, 48 h, Test 1, 1000 mg/kg oral, read-out: Percentage reduction in N.brasiliensis load.

Converted amounts (≈) assume the structure as drawn. Where a name gives a salt, the structure may show the parent alone. Read-outs that look alike come from different tables or passages of the source.

As to `CCOC(=O)NC(=S)Nc1ccccc1NC(=O)C[N+](C)(C)C` [1-ethoxycarbonyl-3-(2-trimethylammoniumacetamidophenyl)thiourea iodide], the inhibition in vivo at 1000 mg/kg in assay [1] (setting [4]) came out at 60%. In assay [1] (rats, Test 2, 1000 mg/kg oral), the worm damage result was “worm damage”. For the same compound, the MIC in assay [2] came out at 0.1 µg/mL.
As for `CCOCCOC(=O)NC(=S)Nc1ccccc1N` [1-(2-ethoxyethoxycarbonyl)-3-(2-aminophenyl)thiourea], the inhibition in vivo at 1000 mg/kg in assay [1] (setting [4]) is 90%. Further, in assay [1] (rats, Test 2, 1000 mg/kg oral), the worm damage result is on record as “worm damage”.
With `CCOC(=O)NC(=S)Nc1ccc(NC(=O)OC(C)C)cc1NC(C)=O` [1-ethoxycarbonyl-3-(2-acetamido-4-isopropoxycarbonylaminophenyl)thiourea], the inhibition in vivo at 1000 mg/kg in assay [1] (setting [4]) turned out to be 62%.
As for `CCOC(=O)NC(=S)Nc1ccccc1NC(=O)CN1CCOCC1` [1-ethoxycarbonyl-3-(2-morpholinoacetamidophenyl)thiourea hydrochloride], in assay [1] (setting [4]), the inhibition in vivo at 1000 mg/kg was 99%. The MIC in assay [2] amounted to 0.1 µg/mL.
As for `CCOC(=O)NC(=S)Nc1cc(NC(=O)OC(C)C)ccc1NC(=O)CN(C)C` [1-ethoxycarbonyl-3-(2-dimethylaminoacetamido-5-isopropoxycarbonylaminophenyl)-thiourea hydrochloride], the inhibition in vivo at 1000 mg/kg in assay [1] (setting [4]) amounted to 100%. Besides, the values for the inhibition in vivo at 250 mg/kg in assay [1] (setting [5]) and in assay [1] (setting [6]) were 50% and 60%, respectively. The MIC in assay [2] was determined as 100 µg/mL.
In the case of `COC(=O)NC(=S)Nc1ccccc1N.Cc1ccc(S(=O)(=O)O)cc1` [1-methoxycarbonyl-3-(2-aminophenyl)thiourea toluene-p-sulphonate], the “Percentage reduction in N.brasiliensis load” value is recorded as 98% in assay [3] (Test 1, 1000 mg/kg oral) and 99% in assay [1] (rats, Test 2, 1000 mg/kg oral).
With `COC(=O)NC(=S)Nc1ccccc1N.O=[N+]([O-])O` [1-methoxycarbonyl-3-(2-aminophenyl)thiourea nitrate], in assay [3] (Test 1, 1000 mg/kg oral), the “Percentage reduction in N.brasiliensis load” value is recorded as 99%. In addition, the inhibition in vivo at 1000 mg/kg in assay [1] (po, read-out: Percentage reduction in N.brasiliensis load, rats, Test 2, 1000 mg/kg oral) worked out at 99%.
Regarding `CCCCN(CCCC)CC(=O)Nc1ccccc1NC(=S)NC(=O)OCC` [1-ethoxycarbonyl-3-(2-di-n-butylaminoacetamidophenyl)thiourea hydrochloride], the inhibition in vivo at 1000 mg/kg in assay [1] (setting [4]) worked out at 97%. In addition, in assay [2], the MIC is 0.1 µg/mL.
On to `CCOC(=O)NC(=S)Nc1ccccc1NC(=O)CN1C[C@@H](C)O[C@@H](C)C1` [1-ethoxycarbonyl-3-[2-(2,6-cis-dimethylmorpholinoacetamido)phenyl]thioureahydrochloride], for which the inhibition in vivo at 250 mg/kg came to 93% in assay [1] (setting [5]) and 95% in assay [1] (setting [6]). In addition, the MIC in assay [2] is 0.1 µg/mL.
Take `CCOC(=O)NC(=S)Nc1ccccc1NC(=O)C(C)N(C)C` (racemic) [1-ethoxycarbonyl-3[2-(1-dimethylaminoethylcarbonylamino)phenyl]thiourea]: the inhibition in vivo at 1000 mg/kg was found to be 97% in assay [3] (setting [7]) and 100% in assay [1] (setting [4]).
Consider `COC(=O)NC(=S)Nc1ccccc1NC(=O)C=CC(=O)O` [1-methoxycarbonyl-3-[2-(3-carboxyacrylamido)phenyl]thiourea], for which, in assay [1] (setting [4]), the inhibition in vivo at 1000 mg/kg came out at 99%. Also, in assay [2], the MIC is 1 µg/mL (≈ 3.09 µM).
`COC(=O)NC(=S)Nc1ccc(C)cc1N` [1-methoxycarbonyl-3-(2-amino-4-methylphenyl)thiourea]: in assay [1] (setting [4]), the inhibition in vivo at 1000 mg/kg turned out to be 97%. Moreover, in assay [1] (rats, Test 2, 1000 mg/kg oral), the worm damage result was “worm damage”. Further, in assay [2], the MIC was 100 µg/mL (≈ 418 µM).
For `COC(=O)NC(=S)Nc1ccc(C(C)=O)cc1N` [1-methoxycarbonyl-3-(4-acetyl-2-aminophenyl)thiourea], the inhibition in vivo at 1000 mg/kg in assay [1] (setting [4]) was found to be 73%. Besides, in assay [1] (rats, Test 2, 1000 mg/kg oral), the worm damage entry is given as “worm damage”.
For `CCOC(=O)NC(=S)Nc1ccc(Cl)cc1N` [1-ethoxycarbonyl-3-(2-amino-4-chlorophenyl)thiourea], the MIC in assay [2] was determined as 10 µg/mL (≈ 36.5 µM).
In the case of `COC(=O)NC(=S)Nc1ccccc1NC(=O)CCN(C)C.Cl` [1-methoxycarbonyl-3-[2-(3-dimethylaminopropionamido)phenyl]thiourea hydrochloride], the inhibition in vivo at 1000 mg/kg is 20% in assay [3] (setting [7]) and 98% in assay [1] (setting [4]). Moreover, the worm damage entry in assay [3] (Test 1, 1000 mg/kg oral) was “worm damage”; in assay [1] (rats, Test 2, 1000 mg/kg oral) it was “worm damage”. Moreover, in assay [2], the MIC turned out to be 1 µg/mL.
With `CCOC(=O)NC(=S)Nc1ccccc1NC(=O)CN(CC)CC` [1-ethoxycarbonyl-3-(2-diethylaminoacetamidophenyl)thiourea hydrochloride], the inhibition in vivo at 1000 mg/kg in assay [3] (setting [7]) came to 44%; in assay [1] (setting [4]), 100%. The inhibition in vivo at 250 mg/kg is 99% in assay [1] (setting [5]) and 95% in assay [1] (setting [6]). Besides, the MIC in assay [2] is 0.1 µg/mL.
Consider `C#CCOC(=O)NC(=S)Nc1ccccc1N` [1-propargyloxycarbonyl-3-(2-aminophenyl)thiourea], for which the inhibition in vivo at 1000 mg/kg in assay [3] (setting [7]) came to 76%; in assay [1] (setting [4]), 100%. Moreover, the worm damage result in assay [3] (Test 1, 1000 mg/kg oral) is reported as “worm damage”. Besides, the MIC in assay [2] came to 1 µg/mL (≈ 4.01 µM).
`CCOC(=O)NC(=S)Nc1ccccc1NC(=O)CN1CCN(C)CC1.Cl` [1-ethoxycarbonyl-3-[2-(4-methylpiperazin-1-ylacetamido)phenyl]thiourea hydrochloride]: in assay [3] (Test 1, 1000 mg/kg oral), the worm damage entry is “worm damage”. In assay [1] (setting [4]), the inhibition in vivo at 1000 mg/kg is 100%. Further, the inhibition in vivo at 250 mg/kg came out at 98% in assay [1] (setting [5]) and 93% in assay [1] (setting [6]). Also, in assay [2], the MIC worked out at 0.1 µg/mL.
Turning to `CCOC(=O)NC(=S)Nc1cc(NC(=O)OC)ccc1NC(=O)CN(C)C` [1-ethoxycarbonyl-3-(2-dimethylaminoacetamido-5-methoxycarbonylaminophenyl)thiourea hydrochloride], in assay [1] (setting [4]), the inhibition in vivo at 1000 mg/kg came out at 100%.
Consider `CCCCc1ccc(NC(=S)NC(=O)OC)c(NC(=O)OCC)c1` [1-methoxycarbonyl-3-(4-n-butyl-2-ethoxycarbonylaminophenyl)thiourea], for which the inhibition in vivo at 500 mg/kg in assay [3] (Nippostrongylus brasiliensis, po, 48 h, Test 1, 500 mg/kg oral, read-out: Percentage reduction in N.brasiliensis load) worked out at 40%. Also, the worm damage entry in assay [3] (Test 1, 500 mg/kg oral) is “worm damage”. The MIC in assay [2] came to 0.1 µg/mL (≈ 0.283 µM).
For `CCCCc1ccc(NC(=S)NC(=O)OCC)c(N)c1` [1-ethoxycarbonyl-3-(2-amino-4-n-butylphenyl)-thiourea], in assay [2], the MIC is 1 µg/mL (≈ 3.39 µM).
Still for that read-out and setting: the result for `CCCCOC(=O)NC(=S)Nc1ccccc1N` [1-butoxycarbonyl-3-(2-aminophenyl)thiourea] reads 1 µg/mL (≈ 3.74 µM).
Regarding `CCOC(=O)Nc1ccc(NC(=S)NC(=O)OC)c(N)c1` [1-methoxycarbonyl-3-(2-amino-4-ethoxycarbonylaminophenyl)thiourea], in assay [1] (setting [4]), the inhibition in vivo at 1000 mg/kg was 99%. The MIC in assay [2] is 10 µg/mL (≈ 32 µM).
For the compound `CCOC(=O)NC(=S)Nc1ccccc1NC(=O)CN(C)Cc1ccccc1` [1-ethoxycarbonyl-3-[2-(N-benzyl-N-methylaminoacetamido)-phenyl]thiourea hydrochloride], the inhibition in vivo at 1000 mg/kg in assay [3] (setting [7]) was 50%; in assay [1] (setting [4]), 99%. Also, the worm damage result in assay [3] (Test 1, 1000 mg/kg oral) is listed as “worm damage”; in assay [1] (rats, Test 2, 1000 mg/kg oral), “worm damage”. In assay [2], the MIC turned out to be 0.1 µg/mL.
Take `CCOC(=O)NC(=S)Nc1ccccc1NC(=O)CN1CCCCC1` [1-ethoxycarbonyl-3-(2-piperidinoacetamidophenyl)thiourea hydrochloride]: the inhibition in vivo at 1000 mg/kg in assay [3] (setting [7]) is 85%; in assay [1] (setting [4]), 98%. Besides, the MIC in assay [2] amounted to 1 µg/mL.
Take `COC(=O)NC(=S)Nc1ccccc1N` [1-methoxycarbonyl-3-(2-aminophenyl)thiourea hydrochloride]: the inhibition in vivo at 1000 mg/kg in assay [3] (setting [7]) and in assay [1] (setting [4]) was 100% each time.
On to `CCCCc1ccc(NC(=O)CN(C)C)c(NC(=S)NC(=O)OCC)c1` [1-ethoxycarbonyl-3-(5-n-butyl-2-dimethylaminoacetamidophenyl)thiourea hydrochloride], for which the inhibition in vivo at 1000 mg/kg is 30% in assay [3] (setting [7]) and 88% in assay [1] (setting [4]). Also, the MIC in assay [2] is 0.1 µg/mL.
